Measured values taken from paper PMC12067444, “Synthesis and Pharmacological Characterization of Novel Peripheral Cannabinoid-1 Receptor Blockers Based on a Tricyclic Scaffold” (Journal of Medicinal Chemistry, 2025).
Several values for one entry are separate records, joined by “and”; a condition that tells them apart may be missing. Equal values may be shown once. Each block holds one compound with its values, some of them ahead of it.

How the values were obtained:
TA98 = experiment: Mini-Ames assay, strain TA98; format: cell-based; details: Salmonella typhimurium
Description: (§1) Mini Am es assay. To conduct the assay, top agar was melted with a microwave and maintained at a temper atur e ≥47 °C in a water bath. T he assay was performed using a heat block set to 45 °C ± 2 °C. 12 × 75 mm test tubes were prepared in duplicates. For each concentration, the following components were added sequentially to a test tube:
(§2) […] The mixture was vortexed and then dispensed into w ells using a dispo sable pipette. The plates wer e then incubated at 37±2 °C for approximately 48 to 72 hours.
(§3) BBbbbb BBBBbbbb BBBB = AAAAbbbbbbAAbb nnnnnnbbbbbb bboo bbbbAAbbbbbbbbnnbbbb oobbbb bbbb eeee dd bbbbbb AAbbbbnn gg AAAAbbbbbbAAbb nnnnnnbbbbbb bbBB bbbbAAbbbbbbbbnnbbbb BBbbbb DDDDDDDD nn bbAAbbbbaaAAbb AAbbbbnnaa The mutagenicity of the compound was determined by evaluating the number of revertant colonies in strains TA98 and TA100. A compound was […]
(§4) related and if the fold increase in revertants (F) was equal to or greater than 2 for […]
(§5) background lawn growth on the agar plates. A scoring system ranging from 0 to 4 […]
growth, respectively. A score of 4 signified full '100%' growth. […]
(§6) background lawn and required magnification for visualization. […]

TA100 = experiment: Mini-Ames assay, strain TA100; format: cell-based
Description: as §1, §2, §3, §4, §5
complete cytotoxicity, while scores 1, 2, and 3 represented 25%, 50%, and 75% growth, respectively. A score of 4 signified full '100%' growth. The background […]
as §6

mouse CB1R = biological target: T1, mouse CB1R (Mus musculus, UniProt P47746); experiment: Radioligand competition displacement binding, [3H]CP-55,940, mouse brain membranes; details: [3H]CP-55,940 displacement, mouse brain membranes; read-out: CB1R mKi
T1 construct: crude membranes from mouse brain; from tissue; host or cells: mouse brain cortex (without cerebellum) membranes, C57Bl/6Jhsd mice
T1 sequence (P47746 whole entry): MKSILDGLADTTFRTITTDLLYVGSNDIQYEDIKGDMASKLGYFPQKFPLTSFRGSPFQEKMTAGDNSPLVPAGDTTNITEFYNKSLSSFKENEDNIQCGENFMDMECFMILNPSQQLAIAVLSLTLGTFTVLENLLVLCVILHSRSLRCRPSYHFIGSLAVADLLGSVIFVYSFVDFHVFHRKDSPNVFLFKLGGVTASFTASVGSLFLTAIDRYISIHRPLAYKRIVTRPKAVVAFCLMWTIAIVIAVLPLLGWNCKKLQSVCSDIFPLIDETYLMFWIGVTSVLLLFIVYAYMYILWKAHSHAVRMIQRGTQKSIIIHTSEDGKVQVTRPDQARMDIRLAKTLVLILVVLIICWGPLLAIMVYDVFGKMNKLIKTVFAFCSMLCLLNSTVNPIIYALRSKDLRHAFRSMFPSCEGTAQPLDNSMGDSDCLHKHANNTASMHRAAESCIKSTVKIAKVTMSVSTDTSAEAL
Description: (§7) BNS compounds’ binding to CB1R and CB2R was assessed in competition displacement assays using [^3H]CP-55,940 as the radioligand and crude membranes from mouse brain or human cells overexpressing the CB1R or CB2R. All data were in triplicates with Ki values determined from three independent experiments. See SI for a detailed procedure.
Supplementary Experimental Methods
Brain membrane preparation for CB1R b i nd i ng . The mouse cortex, excluding the cerebellum, was dissected from 6-week-old C57Bl/6Jhsd mice (Harlan, Israel). The tissue was homogenized in 4 mL Buffer 1 (320 mM sucrose, 2 mM EDTA, 5 m M MgCl 2) using a glass-Teflon homogenizer and Hei-T ORQUE 200 (Heidolph; Cat# 17-012- 002- 25 -1) homogenizer set to 132 rpm. After homogenization, the mixture was centrifuged at 1,600 × g for 10 min at four °C, and the resulting supernatant was kept on ice. The pellet (P1) was discarded, and the remaining supernatant was subje cted to additional rounds of resuspension in 4 mL Buffer 1 followed by centrifugations, repeating this process three times. The pellets obtained from these centrifugations were discarded, and the three supernatant fractions were combined and subjected to higher-speed centrifugation at 39,000 × g for 15 min at f ou r °C. […] This resuspended pellet ( P 2 ) was incubated at 37 °C for 10 min and then centrifuged at 23, 000 × g for 10 min at 4°C.
After centrifugation, the pellet (P2) was resuspended in 5 mL Buffer 2 and further incubated at 30 °C for 40 min. Following this incubation, the suspension was centrifuged at 11,000 × g for 15 min at 4 °C. The pellet (P2) was resuspended in 2 mL Buffer 3 containing 50 mM TRIS HCl pH 7.4, 1 mM EDTA, and 3 mM MgCl 2. T h e protein concentration of the final suspension was determined using the BCA assay.
Subsequently, the suspension was diluted to a final concentration of 2 mg/mL in Buffer 3, aliquoted on ice, and stored at - 80 °C for further use.
(§8) CB1R and CB2R binding. Binding to the CB1R/CB2R was asse ss ed using competition displacement as says with [ 3H] CP -55,940 as the radioligand. Purified membranes from the mouse brain were utilized for CB1R assessment (as described above). Purified […]
membranes from cells overexpressing human CB2R ( Char les River CAT # A618) w e r e employed for CB2R evaluation.
For mouse CB1R binding assays, the novel compounds were dissolved in dimethyl sulfoxide (DMSO) to reach a final concentration of 10 mM. Each compound was then diluted in Buffer 3 (as described above) supplemented with 0.14% BSA, resulting in concentrations ranging from 10^-4 M to 10^-10 M. Triplicates of 100 µL of each concentration were dispensed into siliconized glass tubes. At the same time, 100 µL of Buffer 3 with 0.14% BSA was dispensed into three tubes as blanks. CB1R b r a i n membranes (20 µg) were added to each tube and diluted with 800 µL Buffer 3 with 0.14% BSA. Subsequently, 5 nM of [ 3H] CP -55,940 (100 µL) was added to each tube.
The tubes were sealed with parafilm and incubated with shaking (120 rpm) in a water bath at 30 °C for 1 hour. Following incubation, 2 mL of cold Buffer 4 (50 mM TRIS HCl pH 7.4, 1 mg/mL BSA) was added to each tube.
To harvest the content of each tube, a Brandel M-24R Vacuum Harvester was employed, with a wet WHATMAN GF/B filter paper (Fired) (one membrane for 12 tubes) placed in the harvester after being washed twice with Buffer 4. The filter membrane in the harvester absorbed the full content of each tube. Then, the filter membrane was wash ed six times with Buffer 4. Each filter -glass membrane tube wa s excised and transferred to a 20 mL glass tube co ntaining a 5 mL ULTIMA GOLD scintillation cocktail. […]

P-gp (MDR1) = P-gp (MDR1) (Homo sapiens, UniProt P08183); experiment: Bidirectional permeability in MDR1-MDCKII cells with and without GF120918; details: dog
Sequence of P-gp (MDR1) (P08183 whole entry): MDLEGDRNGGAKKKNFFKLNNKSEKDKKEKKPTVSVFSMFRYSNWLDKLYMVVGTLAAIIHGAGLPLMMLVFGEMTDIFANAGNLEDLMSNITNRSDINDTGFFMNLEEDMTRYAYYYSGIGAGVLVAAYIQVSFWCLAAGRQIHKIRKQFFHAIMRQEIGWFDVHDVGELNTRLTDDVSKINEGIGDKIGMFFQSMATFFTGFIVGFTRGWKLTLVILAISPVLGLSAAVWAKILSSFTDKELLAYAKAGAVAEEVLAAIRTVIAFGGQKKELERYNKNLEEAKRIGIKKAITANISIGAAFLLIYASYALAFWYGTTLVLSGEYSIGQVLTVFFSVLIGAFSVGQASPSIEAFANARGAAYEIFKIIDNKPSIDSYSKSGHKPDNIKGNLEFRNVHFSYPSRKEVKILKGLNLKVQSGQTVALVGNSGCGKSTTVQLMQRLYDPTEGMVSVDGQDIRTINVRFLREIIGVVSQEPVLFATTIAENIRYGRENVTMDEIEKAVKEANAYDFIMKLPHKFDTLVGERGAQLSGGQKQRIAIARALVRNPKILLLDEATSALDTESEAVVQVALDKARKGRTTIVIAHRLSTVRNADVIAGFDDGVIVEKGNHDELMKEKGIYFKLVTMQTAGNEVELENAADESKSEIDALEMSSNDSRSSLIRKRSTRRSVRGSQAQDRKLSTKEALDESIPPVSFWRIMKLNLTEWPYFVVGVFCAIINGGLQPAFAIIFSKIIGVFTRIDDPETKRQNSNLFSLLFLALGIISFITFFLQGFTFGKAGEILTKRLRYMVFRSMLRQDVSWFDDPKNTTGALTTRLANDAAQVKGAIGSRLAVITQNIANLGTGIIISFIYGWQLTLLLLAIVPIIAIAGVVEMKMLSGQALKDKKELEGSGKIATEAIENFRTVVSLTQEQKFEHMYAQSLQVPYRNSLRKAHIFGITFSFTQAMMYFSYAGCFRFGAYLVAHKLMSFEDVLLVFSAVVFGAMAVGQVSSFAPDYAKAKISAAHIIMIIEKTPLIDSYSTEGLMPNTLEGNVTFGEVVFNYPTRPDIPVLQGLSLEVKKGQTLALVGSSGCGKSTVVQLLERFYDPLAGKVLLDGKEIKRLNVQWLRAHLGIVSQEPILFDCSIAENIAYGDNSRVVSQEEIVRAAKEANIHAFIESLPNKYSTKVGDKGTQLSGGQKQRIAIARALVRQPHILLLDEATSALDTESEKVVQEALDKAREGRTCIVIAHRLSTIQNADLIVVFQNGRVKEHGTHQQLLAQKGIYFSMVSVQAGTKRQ
Description: (§9) MDR1-MDCKII cells were seeded onto […] (PET) in a 96-well insert system. Test and reference compounds were administered to the apical (A-to-B) and basolateral (B-to-A) sides of the cell monolayer. Permeation of the compounds in both directions was assessed, with and without a P-glycoprotein (P-gp) inhibitor (GF120918). […] After a 2.5-h incubation period, each compound’s permeability and efflux ratio were calculated as described in the SI. […]
(§10) Bidirectional permeability assessment in MDR1-MDCK cells. Test and reference compounds were quantified using LC -MS/MS ana lysis based on th e peak ar ea r atio of analyte to internal standard (IS). T he apparent permeability coefficient (Papp) in cm/s was computed using the equation: Pa pp = (dCr/d t ) × V r / ( A × C 0), where dCr/ d t […]
(§11) represents the cumulative concentration of the compound in the receiver chamber over time (µM/s), Vr is the solution volume in the receiver chamber (0.075 mL on the apical side, 0.25 mL on the basolateral side), A is the surface area for transport (0.0804 cm2 f or the monolayer ar ea), and C0 is the initial concentration in the donor chamber ( µM) .
(§12) The efflux ratio was determined using the equation Efflux Ratio = P a pp ( B:
(§13) A ) / Pa pp (A: B) . […]
(§14) Additionally, the percent of lucifer yellow in the basolateral well was calculated using the equation:
(§15) Lucif er yellow = VV bbbbbbbbbbbbbbbbbbbb ×RR FFFF bbbbbbbbbbbbbbbbbbbb ×100 VV bbaaaaaa bbbb ×RRRRRR bbaaaaaa bbbb+VV bbbbbbbbbbbbbbbbbbbb ×RRFFFF bbbbbbbbbbbbbbbbbbbb wher e RFUApical and RFUBasolateral demote the r elative f luor escence unit values of lucif er yellow in the apical and basolateral wells, respectively, and VApical and VBasolateral represent the volumes of apical and basolateral wells (0.075 mL and 0.25 mL, r espectively) . T he % Lucif er Yellow should be less than 2, indicating minimal leakage. […]

P-gp (MDR1-MDCKII cells) = P-gp (MDR1-MDCKII cells) (Homo sapiens, UniProt P08183); experiment: as above
Sequence of P-gp (MDR1-MDCKII cells) (P08183 whole entry): as above
Description: as §9, §10, §11, §12, §13, §14, §15

human CB2R = biological target: T2, human CB2R (Homo sapiens, UniProt P34972); experiment: Radioligand competition displacement binding, [3H]CP-55,940, membranes with human CB2R; details: [3H]CP-55,940 displacement, read-out: CB2R hKi
T2 construct: purchased PerkinElmer; Charles River RBXCB2M400UA; A618
T2 sequence (P34972 whole entry): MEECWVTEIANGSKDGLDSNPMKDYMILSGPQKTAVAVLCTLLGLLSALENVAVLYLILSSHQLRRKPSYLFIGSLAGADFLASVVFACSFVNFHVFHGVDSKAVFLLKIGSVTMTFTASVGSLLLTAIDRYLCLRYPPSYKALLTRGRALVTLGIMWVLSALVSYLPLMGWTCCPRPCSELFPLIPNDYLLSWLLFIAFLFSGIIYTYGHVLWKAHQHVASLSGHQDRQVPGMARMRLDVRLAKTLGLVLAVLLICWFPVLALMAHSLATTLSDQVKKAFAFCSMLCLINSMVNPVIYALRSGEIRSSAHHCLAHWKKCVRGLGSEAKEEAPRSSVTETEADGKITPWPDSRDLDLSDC
Description: as §7
Supplementary Experimental Methods […]
as §8
membranes from cells overexpressing human CB2R ( Char les River CAT # A618) w e r e employed for CB2R evaluation. […]
Radioligand binding assays were performed to asse ss the binding affinity of the different compounds to hCB1R (RBHCB1M4 00UA; Per kinElmer) or hCB 2R
(RBXCB2 M400UA; PerkinElmer). Competition displacement as says w ere employed, […]
utilizing [3H] C P -55,940 as the radioligand and crude membranes from humans for CB1 R or CB2 R. T he compounds were tested at various concentrations (eight points with a five-fold serial dilution starting at two m M) , and their ability to displace [3H] CP - 55, 940 was evaluated. Upon completion of the binding assays, the reaction mixture was filtered through GF/C plates, followed by four washes with cold wash buffer. After drying for one hour, 50 μL of Perkin Elmer Microscint 20 cocktail was added to the filter plate wells, and the bound [3H] C P -55,940 radioligand was measured using a β counter. All data points were duplicated, and Ki values were determined from two independent experiments using GraphPad Prism 7.02 analysis software, extracted through nonlinear regression analysis. […]
MgCl 2. The tissue was homogenized using a glass -Teflon and Hei-T ORQUE 200 homogenizer (Heidolph; Cat#17- 012- 002- 25 -1) set to 132 rpm. The resulting suspen sion underwent centrifugation at 48,000 × g for 20 min at four °C, and the supernatant was discarded. The pellet obtained was homogenized again and subjected to a second centrifugation under the same conditions. Subsequently, the resulting pellet […]
mM EGTA, 9 mM MgCl 2, and 150 mM NaCl, followed by homogenization. The protein concentration of the suspension was determined using the BCA assay, and the suspen sion was diluted to a final concentration of 2 mg/mL in assay buffer. The prepared suspension was aliquoted on ice and stored at - 80 °C for further use.

[1] = Salmonella typhimurium, 2 μg/well

SMILES: Nc1ccc2cc3ccccc3cc2c1 [2-aminoanthracene (2-AA), 2-aminoanthracene, reference compound]
- F value (TA98; 2 μg/well): 31.70
- Number of revertants MEAN (TA98; 2 μg/well): 348.67
- solubility (TA100): P0
- F value (TA100; [1]): 8.00
- Number of revertants MEAN (TA100; [1]): 317.33

SMILES: O=[N+]([O-])c1ccc2c(c1)Cc1ccccc1-2 [2-nitrofluorene (2-NF), 2-nitrofluorene, reference compound]
- F value (TA98; 4 μg/well): 14.00
- Number of revertants MEAN (TA98; 4 μg/well): 102.67

- Ki (mouse CB1R): 1130 nM
SMILES: CNC(=O)NC1CCCOc2c1nn(-c1ccccc1Cl)c2-c1ccc(Cl)cc1 (stereo not drawn) [BNS813, 1-[2-(2-Chlorophenyl)-3-(4-chlorophenyl)-5,6,7,8-tetrahydrooxepino[3,2-c]pyrazol-8-yl]-3-methyl-urea]

SMILES: CCOC(=O)N1CCC(C(=O)NC2CCCOc3c2nn(-c2ccccc2Cl)c3-c2ccc(Cl)cc2)CC1 (stereo not drawn) [BNS816, Ethyl-4-((2-(2-chlorophenyl)-3-(4-chlorophenyl)-5,6,7,8-tetrahydro-2H-oxepino[3,2-c]pyrazol-8-yl)carbamoyl)piperidine-1-carboxylate]
- Papp A→B at 2.5 h (P-gp (MDR1); MDCK-MDR1): 6.99 ×10⁻⁶ cm/s
- Papp B→A at 2.5 h (P-gp (MDR1); MDCK-MDR1): 5.37 ×10⁻⁶ cm/s
- efflux ratio at 2.5 h (P-gp (MDR1); MDCK-MDR1): 0.77
- recovery at 2.5 h (P-gp (MDR1); MDCK-MDR1, Mean recovery % A to B, without GF120918): 41.6%
- recovery at 2.5 h (P-gp (MDR1); MDCK-MDR1, Mean recovery % B to A, with GF120918): 61.4%
- recovery at 2.5 h (P-gp (MDR1); MDCK-MDR1, Mean recovery % B to A, without GF120918): 48.8%
- P-gp substrate (P-gp (MDR1-MDCKII cells); MDR1-MDCKII cells): no
- Rank Papp (P-gp (MDR1-MDCKII cells); MDR1-MDCKII permeability rank): Hi gh
- Ki (mouse CB1R): 8.9 nM and 8.93 nM
- Ki (human CB2R): 1530 nM
